Measured values: patent publication US11142515B2, “Pyrazolyl-ureas as kinase inhibitors” (RESPIVERT LIMITED, priority 2014, dated 2021)
pIC50: −log10 of the molar value.

What was measured:
Syk = target: T1, Syk (Homo sapiens, UniProt P43405); assay: Syk enzyme inhibition (Z-LYTE FRET); format: biochemical; conditions: Table 2A
T1 construct: purchased Life Technologies
Method in brief: (§1)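 Enzyme (1000, 1400 or 2000 ng/mL stocks for c-Src, Hck, Syk respectively) preincubated 2 h at RT with compound (0.0012–40 μg/mL series), then FRET peptide plus ATP (800 μM c-Src; 60 μM Hck, Syk stocks) for 1 h. Protease development 1 h; phosphorylation from coumarin/fluorescein emission ratio.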

d-U937 cells = assay: Cell viability: MTT assay in differentiated U937 cells; format: cell-based, human; conditions: 10 μg/mL
Method in brief: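 Differentiated U937 cells exposed to compound at a final 10 μg/mL, either 4 h in 5% FCS RPMI1640 or 24 h in 10% FCS RPMI1640. MTT added for 1 h, formazan dissolved in DMSO, absorbance read at 550 nm; % viability loss relative to 0.5% DMSO vehicle, with increases shown as negative values.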

c-Src = target: T2, c-Src (Homo sapiens, UniProt P12931); assay: c-Src enzyme inhibition (Z-LYTE FRET); format: biochemical; conditions: Table 2A
T2 construct: purchased Life Technologies
T2 sequence (P12931 whole entry): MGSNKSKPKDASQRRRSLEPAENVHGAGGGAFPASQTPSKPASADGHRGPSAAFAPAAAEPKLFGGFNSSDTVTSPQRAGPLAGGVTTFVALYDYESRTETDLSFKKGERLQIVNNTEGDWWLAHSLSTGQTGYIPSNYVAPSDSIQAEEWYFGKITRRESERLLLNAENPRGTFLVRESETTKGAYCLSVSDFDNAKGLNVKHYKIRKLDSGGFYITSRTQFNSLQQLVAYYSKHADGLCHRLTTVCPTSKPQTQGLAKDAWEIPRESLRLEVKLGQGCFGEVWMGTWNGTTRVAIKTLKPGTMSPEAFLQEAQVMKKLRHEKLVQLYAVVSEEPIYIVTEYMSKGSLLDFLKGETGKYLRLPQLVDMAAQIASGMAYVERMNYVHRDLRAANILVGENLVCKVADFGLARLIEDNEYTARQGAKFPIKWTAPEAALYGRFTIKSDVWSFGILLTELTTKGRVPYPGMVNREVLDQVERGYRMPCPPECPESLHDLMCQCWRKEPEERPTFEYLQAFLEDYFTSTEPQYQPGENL
Method in brief: as §1

p38MAPKγ (MAPK12) = target: T3, p38MAPKγ (MAPK12) (Homo sapiens, UniProt P53778); assay: p38 MAPKγ enzyme inhibition (Z-LYTE FRET); format: biochemical; conditions: Table 2A; read-out: IC50 Values for Enzyme Inhibition p38 MAPKγ
T3 construct: purchased Life Technologies
T3 sequence (P53778 1-367): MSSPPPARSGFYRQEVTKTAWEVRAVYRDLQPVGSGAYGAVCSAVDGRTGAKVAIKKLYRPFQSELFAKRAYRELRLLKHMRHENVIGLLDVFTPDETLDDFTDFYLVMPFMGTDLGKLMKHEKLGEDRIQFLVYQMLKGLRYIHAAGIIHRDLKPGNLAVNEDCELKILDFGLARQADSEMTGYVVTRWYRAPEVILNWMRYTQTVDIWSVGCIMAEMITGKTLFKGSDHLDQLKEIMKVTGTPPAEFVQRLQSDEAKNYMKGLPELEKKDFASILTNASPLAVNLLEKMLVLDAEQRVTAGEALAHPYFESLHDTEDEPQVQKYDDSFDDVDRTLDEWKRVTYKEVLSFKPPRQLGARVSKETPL
Method in brief: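 Z-LYTE read-out: after 1 h protease development, only non-phosphorylated peptide is cleaved, and the donor/acceptor (coumarin/fluorescein) ratio reports phosphorylation. Beforehand, enzyme and compound (stock concentrations 0.0012–40 μg/mL) were preincubated 2 h at RT, then the kinase reaction ran 1 h at RT with peptide and ATP (8 μM and 400 μM stocks).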

Structure (SMILES)	pIC50 (Syk)	MTT Assay Cell viability at time point indicated in d-U937 Cells, 4 h (d-U937 cells)	MTT Assay Cell viability at time point indicated in d-U937 Cells, 24 h (d-U937 cells)	pIC50 (c-Src)	pIC50 (p38MAPKγ (MAPK12))
COCCNC(=O)c1cnc(Nc2cc(COc3ccc(NC(=O)Nc4cc(C(C)(C)C)nn4-c4csc(C)c4)c4ccccc34)ccn2)cn1 [Example 44]	< 4.85	− (−ve and +ve indicate the value is below and above, respectively, the no significant effect threshold defined as 30% inhibition at 10 μg/mL at the time point indicated)	+ (−ve and +ve indicate the value is below and above, respectively, the no significant effect threshold defined as 30% inhibition at 10 μg/mL at the time point indicated)	6.63	6.34
CC(C)(C)c1cc(NC(=O)Nc2ccc(OCc3ccnc(Nc4cnccn4)c3)c3ccccc23)n(-c2ccc(Cl)cc2)n1 [Example 45]	< 4.79	− (−ve and +ve indicate the value is below and above, respectively, the no significant effect threshold defined as 30% inhibition at 10 μg/mL at the time point indicated)	− (−ve and +ve indicate the value is below and above, respectively, the no significant effect threshold defined as 30% inhibition at 10 μg/mL at the time point indicated)	5.10	< 4.79
COc1ccc(-n2nc(C(C)(C)C)cc2NC(=O)Nc2ccc(OCc3ccnc(Nc4cnccn4)c3)c3ccccc23)cc1Cl [Example 46]	5.17	− (−ve and +ve indicate the value is below and above, respectively, the no significant effect threshold defined as 30% inhibition at 10 μg/mL at the time point indicated)	− (−ve and +ve indicate the value is below and above, respectively, the no significant effect threshold defined as 30% inhibition at 10 μg/mL at the time point indicated)	6.41	5.71
Cc1ccc(-n2nc(C(C)(C)C)cc2NC(=O)Nc2ccc(OCc3ccnc(Nc4cncc(C5CCC5)n4)c3)c3ccccc23)cc1 [Example 47]	5.38	− (−ve and +ve indicate the value is below and above, respectively, the no significant effect threshold defined as 30% inhibition at 10 μg/mL at the time point indicated)	− (−ve and +ve indicate the value is below and above, respectively, the no significant effect threshold defined as 30% inhibition at 10 μg/mL at the time point indicated)	6.40	6.33
Cc1ccc(-n2nc(C(C)(C)C)cc2NC(=O)Nc2ccc(OCc3ccnc(Nc4cncc(C5CCCC5)n4)c3)c3ccccc23)cc1 [Example 48]	< 4.82	− (−ve and +ve indicate the value is below and above, respectively, the no significant effect threshold defined as 30% inhibition at 10 μg/mL at the time point indicated)	− (−ve and +ve indicate the value is below and above, respectively, the no significant effect threshold defined as 30% inhibition at 10 μg/mL at the time point indicated)	6.34	5.91
CC(C)(C)c1cc(NC(=O)Nc2ccc(OCc3ccnc(Nc4cnccn4)c3)c3ccccc23)n(-c2cccc(F)c2)n1 [Example 49]	5.03	− (−ve and +ve indicate the value is below and above, respectively, the no significant effect threshold defined as 30% inhibition at 10 μg/mL at the time point indicated)	− (−ve and +ve indicate the value is below and above, respectively, the no significant effect threshold defined as 30% inhibition at 10 μg/mL at the time point indicated)	6.25	6.89
